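Dose response: 5 concentrations. Exposure: 48 h. Format: 96-well plates. Endpoint: linear interpolation; highest concentration if not reached. The concentration for full growth arrest is given as TGI.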
Tests used:
Test in all cases: NCI anticancer screen, dose series, 48 h
[1] = test system: SN12C renal
[2] = test system: RPMI-8226 leukemia
[3] = test system: MALME-3M melanoma
[4] = test system: HOP-62 NSCLC
[5] = test system: DU-145 prostate
[6] = test system: SF-539 CNS
[7] = test system: OVCAR-5 ovarian
[8] = test system: HCT-15 colon
[9] = test system: IGROV1 ovarian
[10] = test system: MDA-MB-435
[11] = test system: OVCAR-8 ovarian
[12] = test system: SK-MEL-28 melanoma
[13] = test system: SW-620 colon
[14] = test system: CAKI-1 renal
[15] = test system: HL-60(TB) leukemia
[16] = test system: SR leukemia
[17] = test system: NCI-H460 lung
[18] = test system: MOLT-4 leukemia
[19] = test system: BT-549 breast
[20] = test system: UACC-62 melanoma
[21] = test system: SK-MEL-5 melanoma
[22] = test system: HCC-2998 colon
[23] = test system: HS 578T breast
[24] = test system: TK-10 renal
[25] = test system: OVCAR-4 ovarian
[26] = test system: COLO 205 colon
[27] = test system: SF-295 CNS
[28] = test system: U251 CNS
[29] = test system: HOP-92 NSCLC
[30] = test system: SNB-19 CNS
[31] = test system: UACC-257 melanoma
[32] = test system: PC-3 prostate
[33] = test system: M14 melanoma
[34] = test system: MCF7 breast
[35] = test system: RXF 393 renal
[36] = test system: LOX IMVI melanoma
[37] = test system: HT29 colon
[38] = test system: A549 NSCLC
[39] = test system: MDA-N
[40] = test system: EKVX NSCLC
[41] = test system: NCI-H522 lung
[42] = test system: HCT-116 colon
[43] = test system: K-562 leukemia
[44] = test system: NCI-H226 lung
[45] = test system: NCI/ADR-RES ovarian
[46] = test system: MDA-MB-231 breast
[47] = test system: SF-268 CNS
[48] = test system: SK-MEL-2 melanoma
[49] = test system: SNB-75 CNS
[50] = test system: NCI-H23 lung
[51] = test system: CCRF-CEM leukemia
[52] = test system: 786-0 renal
[53] = test system: OVCAR-3 ovarian
[54] = test system: T-47D breast
[55] = test system: A498 renal
[56] = test system: ACHN renal
[57] = test system: KM20L2 colon
[58] = test system: HOP-18 NSCLC
[59] = test system: SK-OV-3 ovarian
[60] = test system: KM12 colon
[61] = test system: DLD-1 colon
[62] = test system: SNB-78 CNS
[63] = test system: M19-MEL melanoma
[64] = test system: LXFL 529 NSCLC
[65] = test system: DMS 114 small cell lung
[66] = test system: DMS 273 small cell lung

Measured: TGI

O=C1CCc2cc([N+](=O)[O-])ccc2O1
not listed: [57] | [58] | [59] | [60] | [61] | [62] | [63] | [64] | [65] | [66]
> 100 µM: all other assays above

COc1ccccc1NC(=O)CC(=O)NNCC(=O)Nc1nc(-c2ccccc2)cs1
not listed: [3] | [5] | [7] | [8] | [10] | [14] | [16] | [19] | [22] | [23] | [29] | [31] | [32] | [34] | [39] | [45] | [46] | [48] | [54] | [55] | [56]
> 100 µM: all other assays above

From PubChem BioAssay (NCI)
